Where “and” joins values, the source holds several entries; their conditions need not be identical. Equal values may be shown once. Numbers after ± are expanded uncertainties.
Test: xn = mol fraction of the nth substance listed
Conditions: 96 kPa, Liquid; for viscosity: Cone and plate viscometry; for electrical conductivity: Frequency=0.001 MHz, Alternating current cell with electrodes

C1CCC2=NCCCN2CC1 [1,8-diaza-7-bicyclo[5.4.0]undecene] + OCC(O)CO
viscosity (288.1 K, x1 = 0.0501): 3852 ± 840 mPa·s
viscosity (288.1 K, x1 = 0.0909): 5116 ± 1300 mPa·s
viscosity (288.1 K, x1 = 0.1): 5432 ± 1400 mPa·s
viscosity (288.1 K, x1 = 0.1667): 5975 ± 1600 mPa·s
viscosity (288.1 K, x1 = 0.2): 6100 ± 1600 mPa·s and 6110 ± 1700 mPa·s
viscosity (288.1 K, x1 = 0.2153): 6150 ± 1600 mPa·s
viscosity (288.1 K, x1 = 0.2306): 6006 ± 1600 mPa·s
viscosity (288.1 K, x1 = 0.3059): 5665 ± 1500 mPa·s
viscosity (288.1 K, x1 = 0.3333): 5582 ± 1400 mPa·s
viscosity (288.1 K, x1 = 0.4011): 5043 ± 1200 mPa·s
viscosity (288.1 K, x1 = 0.5): 4049 ± 910 mPa·s
viscosity (288.1 K, x1 = 0.5632): 3138 ± 630 mPa·s
viscosity (288.1 K, x1 = 0.625): 1906 ± 310 mPa·s
viscosity (288.1 K, x1 = 0.75): 468.1 ± 48 mPa·s
viscosity (288.1 K, x1 = 0.8333): 119.1 ± 8.8 mPa·s
viscosity (288.1 K, x1 = 1): 15.35 ± 1 mPa·s
electrical conductivity (288.1 K, x1 = 0.0502): 0.0181 ± 0.00072 S/m
electrical conductivity (288.1 K, x1 = 0.0914): 0.0194 ± 0.00077 S/m
electrical conductivity (288.1 K, x1 = 0.1): 0.0187 ± 0.00083 S/m
electrical conductivity (288.1 K, x1 = 0.1115): 0.0182 ± 0.00072 S/m
electrical conductivity (288.1 K, x1 = 0.1266): 0.0169 ± 0.00067 S/m
electrical conductivity (288.1 K, x1 = 0.1672): 0.0141 ± 0.00056 S/m
electrical conductivity (288.1 K, x1 = 0.2): 0.0116 ± 0.00046 S/m
electrical conductivity (288.1 K, x1 = 0.2504): 0.00817 ± 0.00032 S/m
electrical conductivity (288.1 K, x1 = 0.287): 0.00592 ± 0.00023 S/m
electrical conductivity (288.1 K, x1 = 0.3338): 0.00385 ± 0.00015 S/m
electrical conductivity (288.1 K, x1 = 0.4003): 0.00156 ± 6.2e-05 S/m
electrical conductivity (288.1 K, x1 = 0.5): 0.000299 ± 1.2e-05 S/m
electrical conductivity (288.1 K, x1 = 0.5656): 0.000105 ± 4.2e-06 S/m
electrical conductivity (288.1 K, x1 = 0.6255): 4.63e-05 ± 1.8e-06 S/m
electrical conductivity (288.1 K, x1 = 0.75): 8.75e-05 ± 3.9e-06 S/m
electrical conductivity (288.1 K, x1 = 0.753): 8.75e-05 ± 3.5e-06 S/m
electrical conductivity (288.1 K, x1 = 0.8333): 0.000221 ± 9.8e-06 S/m
electrical conductivity (288.1 K, x1 = 0.8334): 0.000221 ± 8.8e-06 S/m
electrical conductivity (288.1 K, x1 = 0.9094): 0.000432 ± 1.7e-05 S/m
electrical conductivity (288.1 K, x1 = 0.95): 0.000486 ± 1.9e-05 S/m
electrical conductivity (288.1 K, x1 = 0.975): 0.000452 ± 1.8e-05 S/m
electrical conductivity (288.1 K, x1 = 1): 0.000222 ± 8.8e-06 S/m
electrical conductivity (293.1 K, x1 = 0.0502): 0.0243 ± 0.00096 S/m
electrical conductivity (293.1 K, x1 = 0.0914): 0.0272 ± 0.0011 S/m
electrical conductivity (293.1 K, x1 = 0.1115): 0.0249 ± 0.00099 S/m
electrical conductivity (293.1 K, x1 = 0.1266): 0.0238 ± 0.00094 S/m
electrical conductivity (293.1 K, x1 = 0.1672): 0.0208 ± 0.00082 S/m
electrical conductivity (293.1 K, x1 = 0.2): 0.0167 ± 0.00066 S/m
electrical conductivity (293.1 K, x1 = 0.2504): 0.0117 ± 0.00046 S/m
electrical conductivity (293.1 K, x1 = 0.287): 0.00833 ± 0.00033 S/m
electrical conductivity (293.1 K, x1 = 0.3338): 0.00534 ± 0.00021 S/m
electrical conductivity (293.1 K, x1 = 0.4003): 0.00223 ± 8.8e-05 S/m
electrical conductivity (293.1 K, x1 = 0.5): 0.000456 ± 1.8e-05 S/m
electrical conductivity (293.1 K, x1 = 0.5656): 0.00016 ± 6.3e-06 S/m
electrical conductivity (293.1 K, x1 = 0.6255): 7.22e-05 ± 2.9e-06 S/m
electrical conductivity (293.1 K, x1 = 0.753): 0.000125 ± 5e-06 S/m
electrical conductivity (293.1 K, x1 = 0.8334): 0.000314 ± 1.3e-05 S/m
electrical conductivity (293.1 K, x1 = 0.9094): 0.000514 ± 2e-05 S/m
electrical conductivity (293.1 K, x1 = 0.95): 0.000561 ± 2.2e-05 S/m
electrical conductivity (293.1 K, x1 = 0.975): 0.000511 ± 2e-05 S/m
electrical conductivity (293.1 K, x1 = 1): 0.000241 ± 9.5e-06 S/m
viscosity (298.1 K, x1 = 0.0501): 1458 ± 210 mPa·s
viscosity (298.1 K, x1 = 0.0909): 1802 ± 280 mPa·s
viscosity (298.1 K, x1 = 0.1): 1876 ± 290 mPa·s
viscosity (298.1 K, x1 = 0.1667): 2092 ± 340 mPa·s
viscosity (298.1 K, x1 = 0.2): 2107 ± 340 mPa·s
viscosity (298.1 K, x1 = 0.2153): 2175 ± 360 mPa·s
viscosity (298.1 K, x1 = 0.2306): 2087 ± 340 mPa·s
viscosity (298.1 K, x1 = 0.3059): 1988 ± 320 mPa·s
viscosity (298.1 K, x1 = 0.3333): 1968 ± 310 mPa·s
viscosity (298.1 K, x1 = 0.4011): 1705 ± 260 mPa·s
viscosity (298.1 K, x1 = 0.5): 1315 ± 180 mPa·s
viscosity (298.1 K, x1 = 0.5632): 1017 ± 130 mPa·s
viscosity (298.1 K, x1 = 0.625): 616.2 ± 66 mPa·s
viscosity (298.1 K, x1 = 0.75): 186.1 ± 15 mPa·s
viscosity (298.1 K, x1 = 0.8333): 51 ± 3.4 mPa·s
viscosity (298.1 K, x1 = 1): 10.32 ± 0.67 mPa·s
electrical conductivity (298.1 K, x1 = 0.0502): 0.0327 ± 0.0013 S/m
electrical conductivity (298.1 K, x1 = 0.0914): 0.0371 ± 0.0015 S/m
electrical conductivity (298.1 K, x1 = 0.1): 0.0352 ± 0.0016 S/m
electrical conductivity (298.1 K, x1 = 0.1115): 0.0339 ± 0.0013 S/m
electrical conductivity (298.1 K, x1 = 0.1266): 0.0317 ± 0.0013 S/m
electrical conductivity (298.1 K, x1 = 0.1672): 0.0283 ± 0.0011 S/m
electrical conductivity (298.1 K, x1 = 0.2): 0.023 ± 0.00091 S/m
electrical conductivity (298.1 K, x1 = 0.2504): 0.0161 ± 0.00064 S/m
electrical conductivity (298.1 K, x1 = 0.287): 0.0112 ± 0.00045 S/m
electrical conductivity (298.1 K, x1 = 0.3338): 0.00723 ± 0.00029 S/m
electrical conductivity (298.1 K, x1 = 0.4003): 0.00307 ± 0.00012 S/m
electrical conductivity (298.1 K, x1 = 0.5): 0.000675 ± 2.7e-05 S/m
electrical conductivity (298.1 K, x1 = 0.5656): 0.000249 ± 9.9e-06 S/m
electrical conductivity (298.1 K, x1 = 0.6255): 0.000122 ± 4.8e-06 S/m
electrical conductivity (298.1 K, x1 = 0.75): 0.000189 ± 8.4e-06 S/m
electrical conductivity (298.1 K, x1 = 0.753): 0.000189 ± 7.5e-06 S/m
electrical conductivity (298.1 K, x1 = 0.8333): 0.000405 ± 1.8e-05 S/m
electrical conductivity (298.1 K, x1 = 0.8334): 0.000405 ± 1.6e-05 S/m
electrical conductivity (298.1 K, x1 = 0.9094): 0.000603 ± 2.4e-05 S/m
electrical conductivity (298.1 K, x1 = 0.95): 0.000638 ± 2.5e-05 S/m
electrical conductivity (298.1 K, x1 = 0.975): 0.000561 ± 2.2e-05 S/m
electrical conductivity (298.1 K, x1 = 1): 0.000267 ± 1.1e-05 S/m
electrical conductivity (303.1 K, x1 = 0.0502): 0.0423 ± 0.0017 S/m
electrical conductivity (303.1 K, x1 = 0.0914): 0.0478 ± 0.0019 S/m
electrical conductivity (303.1 K, x1 = 0.1115): 0.044 ± 0.0017 S/m
electrical conductivity (303.1 K, x1 = 0.1266): 0.0433 ± 0.0017 S/m
electrical conductivity (303.1 K, x1 = 0.1672): 0.0374 ± 0.0015 S/m
electrical conductivity (303.1 K, x1 = 0.2): 0.031 ± 0.0012 S/m
electrical conductivity (303.1 K, x1 = 0.2504): 0.0204 ± 0.00081 S/m
electrical conductivity (303.1 K, x1 = 0.287): 0.015 ± 0.0006 S/m
electrical conductivity (303.1 K, x1 = 0.3338): 0.0103 ± 0.00041 S/m
electrical conductivity (303.1 K, x1 = 0.4003): 0.00416 ± 0.00016 S/m
electrical conductivity (303.1 K, x1 = 0.5): 0.000965 ± 3.8e-05 S/m
electrical conductivity (303.1 K, x1 = 0.5656): 0.000356 ± 1.4e-05 S/m
electrical conductivity (303.1 K, x1 = 0.6255): 0.000176 ± 7e-06 S/m
electrical conductivity (303.1 K, x1 = 0.753): 0.000254 ± 1e-05 S/m
electrical conductivity (303.1 K, x1 = 0.8334): 0.000526 ± 2.1e-05 S/m
electrical conductivity (303.1 K, x1 = 0.9094): 0.000695 ± 2.8e-05 S/m
electrical conductivity (303.1 K, x1 = 0.95): 0.000702 ± 2.8e-05 S/m
electrical conductivity (303.1 K, x1 = 0.975): 0.000615 ± 2.4e-05 S/m
electrical conductivity (303.1 K, x1 = 1): 0.000297 ± 1.2e-05 S/m
viscosity (308.1 K, x1 = 0.0501): 626.5 ± 66 mPa·s
viscosity (308.1 K, x1 = 0.0909): 759.4 ± 84 mPa·s
viscosity (308.1 K, x1 = 0.1): 784.2 ± 88 mPa·s
viscosity (308.1 K, x1 = 0.1667): 818.8 ± 93 mPa·s
viscosity (308.1 K, x1 = 0.2): 833.7 ± 95 mPa·s and 835.4 ± 100 mPa·s
viscosity (308.1 K, x1 = 0.2153): 838.8 ± 96 mPa·s
viscosity (308.1 K, x1 = 0.2306): 828.5 ± 94 mPa·s
viscosity (308.1 K, x1 = 0.3059): 771.5 ± 86 mPa·s
viscosity (308.1 K, x1 = 0.3333): 742.2 ± 82 mPa·s
viscosity (308.1 K, x1 = 0.4011): 664.5 ± 71 mPa·s
viscosity (308.1 K, x1 = 0.5): 503 ± 49 mPa·s
viscosity (308.1 K, x1 = 0.5632): 393.5 ± 36 mPa·s
viscosity (308.1 K, x1 = 0.625): 224.2 ± 18 mPa·s
viscosity (308.1 K, x1 = 0.75): 84.66 ± 5.9 mPa·s
viscosity (308.1 K, x1 = 0.8333): 33.4 ± 2.2 mPa·s
viscosity (308.1 K, x1 = 1): 8.17 ± 0.53 mPa·s
electrical conductivity (308.1 K, x1 = 0.0502): 0.0534 ± 0.0021 S/m
electrical conductivity (308.1 K, x1 = 0.0914): 0.062 ± 0.0025 S/m
electrical conductivity (308.1 K, x1 = 0.1): 0.0592 ± 0.0026 S/m
